The subject of the assay is SARS-CoV-2 spike protein active trimer. The assay is classed as binding.

pKd: −log10 of the molar value. Non-standard residues stand in square brackets, D forms with d. Residues, ends and D or L forms follow the SMILES beside them. *: point of attachment. Biotin = O=C1N[C@H]2[C@H](CS[C@H]2CCCCC(=O)*)N1; Phe(3,5-F2) = N[C@@H](Cc1cc(F)cc(F)c1)C(=O)O; hCit = NC(=O)NCCCC[C@H](N)C(=O)O; Aad = N[C@@H](CCCC(=O)O)C(=O)O; dPhg = N[C@@H](C(=O)O)c1ccccc1; Nva = CCC[C@H](N)C(=O)O; AEEA = NCCOCCOCC(=O)O; Ac3c = NC1(C(=O)O)CC1

For `COc1ccc(C[C@H](NC(=O)[C@H](N)Cc2c[nH]cn2)C(=O)N[C@@H](CCCNC(=N)N)C(=O)N[C@@H](C(=O)N[C@H](CCC(=O)O)C(=O)N[C@H](Cc2c[nH]cn2)C(=O)N[C@H](CCSC)C(=O)N[C@@H](CC(C)C)C(=O)NCCOCCOCC(=O)NCCOCCOCC(=O)N[C@@H](CCCCNC(=O)CCCC[C@@H]2SC[C@@H]3NC(=O)N[C@@H]32)C(N)=O)c2ccccc2)cc1` [L9-1] (H-[dH]Y(Me)R[dPhg][dE][dH][dM]L[AEEA][AEEA]K(Biotin)-NH2), the “binding to the S-protein active trimer (in words)” value (shortened to “binding … (in words)”) is “bind reasonably well”. Turning to `CCC[C@H](NC(=O)[C@H](CCCCNC(N)=O)NC(=O)[C@H](CCCNC(=N)N)NC(=O)[C@H](Cc1ccc(OC)cc1)NC(=O)[C@H](N)Cc1c[nH]cn1)C(=O)N[C@@H](CCCNC(=N)N)C(=O)N[C@@H](Cc1cc(F)cc(F)c1)C(=O)N[C@@H](Cc1ccccc1)C(=O)N[C@@H](CCCC(=O)O)C(=O)NCCOCCOCC(=O)NCCOCCOCC(=O)N[C@@H](CCCCNC(=O)CCCC[C@@H]1SC[C@@H]2NC(=O)N[C@@H]21)C(N)=O` [L10-2] (H-[dH]Y(Me)R[hCit][Nva]R[Phe(3,5-F2)]F[Aad][AEEA][AEEA]K(Biotin)-NH2), the negative-log Kd (pKd) is 7.60; the “binding affinity, times higher than CoV6-2” value was 8 times; the “binding affinity, times stronger than the 13-mer reference peptide” value was ~3 times; the “binding … (in words)” value is “bind reasonably well”. For the compound `CCC[C@H](NC(=O)[C@H](CCC(N)=O)NC(=O)[C@@H](N)Cc1cc(F)cc(F)c1)C(=O)N[C@@H](CCCNC(=N)N)C(=O)N[C@H](CC(N)=O)C(=O)N[C@@H](CCC)C(=O)N[C@H](CC(N)=O)C(=O)NC1(C(=O)NCCOCCOCC(=O)NCCOCCOCC(=O)N[C@@H](CCCCNC(=O)CCCC[C@@H]2SC[C@@H]3NC(=O)N[C@@H]32)C(N)=O)CC1` [L10-3] (H-[Phe(3,5-F2)]Q[Nva]R[dN][Nva][dN][Ac3c][AEEA][AEEA]K(Biotin)-NH2), the “binding … (in words)” value is reported as “bind reasonably well”. Still for that read-out and setting: for `CCC[C@H](NC(=O)[C@H](CCCCNC(N)=O)NC(=O)[C@H](Cc1ccc(OC)cc1)NC(=O)[C@H](N)Cc1c[nH]cn1)C(=O)N[C@@H](CCCNC(=N)N)C(=O)N[C@@H](Cc1cc(F)cc(F)c1)C(=O)N[C@@H](Cc1ccccc1)C(=O)N[C@@H](CCCC(=O)O)C(=O)NCCOCCOCC(=O)NCCOCCOCC(=O)N[C@@H](CCCCNC(=O)CCCC[C@@H]1SC[C@@H]2NC(=O)N[C@@H]21)C(N)=O` [L10-4] (H-[dH]Y(Me)[hCit][Nva]R[Phe(3,5-F2)]F[Aad][AEEA][AEEA]K(Biotin)-NH2) the value was “bind reasonably well”.

As to `CC(C)C[C@H](NC(=O)CNC(=O)[C@H](Cc1ccccc1)NC(=O)[C@@H](NC(=O)[C@@H](N)[C@@H](C)O)C(C)C)C(=O)N[C@@H](CC(N)=O)C(=O)N[C@H](C(=O)N[C@@H](Cc1c[nH]c2ccccc12)C(=O)N[C@@H](CCCCN)C(=O)N[C@@H](CCCNC(=N)N)C(=O)N[C@@H](Cc1ccc(O)cc1)C(=O)N[C@@H](CO)C(=O)N[C@@H](CCCCN)C(=O)NCCOCCOCC(=O)NCCOCCOCC(=O)N[C@@H](CCCCNC(=O)CCCC[C@@H]1SC[C@@H]2NC(=O)N[C@@H]21)C(N)=O)C(C)C` [Reference Peptide, reference compound] (H-TVFGLNVWKRYSK[AEEA][AEEA]K(Biotin)-NH2), the pKd is 7.10.

As a reminder, the pKd is the Kd on a negative log10 scale, so that one unit is a factor of ten. Low values mean a high Kd, high ones a low Kd.

Source of the values: PMC10255569, “Discovery of Peptidic Ligands against the SARS-CoV-2 Spike Protein and Their Use in the Development of a Highly Sensitive Personal Use Colorimetric COVID-19 Biosensor” (ACS Sensors, 2023).
